In PMC5896380, “Selective imaging of cathepsin L in breast cancer by fluorescent activity-based probes” (Chemical Science, 2018):

How the values were obtained:
[1] = test system: cathepsin B in MDA-MB-231 cells; assay: Weighted colocalization of probe with cathepsin B antibody, confocal microscopy; assay type: cell-based, human; settings: CatB ab (8h), 1 μM probe
Experimental: Glass coverslips 15 mm in diameter were placed in 12-well plates and coated with poly-D-lysine (500 μL, 1 mg mL^–1 in water, Specialty Media) for 30 minutes. The poly-D-lysine was aspirated and the coverslips were washed twice with sterile water and air-dried. Next, low passage MDA-MB-231 cells in DMEM (100 000 cells per mL) were added to wells (1 mL per well) and allowed to attach for 2 hours. Cells were then treated with Cy5-labeled probes (1 μM) for 8 or 24 hours. The control cells were preincubated with E64d for 2 hours. After various incubation times, the medium was removed and the cells were gently washed twice with DPBS (1 mL each). The cells were then fixed with ice-cold methanol (500 μL per well) for 15 minutes at –20 °C. […] Cathepsins L and B were detected by primary goat anti-hCathepsin L (R&D, AF952, 0.2 mg mL^–1, 1 : 200) and goat anti-hCathepsin B (R&D, AF953, 0.2 mg mL^–1, 1 : 80), respectively, in 3% BSA in DPBS (with 0.5% Triton-X, v/v) for 2 hours at room temperature. […] Next, the cells were washed twice with DPBS, and coverslips were mounted using Vectashield mounting medium fluorescence containing DAPI (Vector Lab. H-1000). […] All images were acquired in .tiff format in MetaMorph software or in .lsm format in ZEN software and analyzed using ImageJ and ZEN software. […]

[2] = target: T1, cathepsin S (Homo sapiens, UniProt P25774); assay: kobs/I of activity-based probes, cathepsin S; assay type: biochemical; settings: Fig. 6A; pseudo-first order, probe at least 5-fold excess over cathepsin, 100 μM ACC substrate; pH 5.5, 37 °C; triplicate, SD below 20%
T1 construct: made in house
T1 sequence (P25774 115-331): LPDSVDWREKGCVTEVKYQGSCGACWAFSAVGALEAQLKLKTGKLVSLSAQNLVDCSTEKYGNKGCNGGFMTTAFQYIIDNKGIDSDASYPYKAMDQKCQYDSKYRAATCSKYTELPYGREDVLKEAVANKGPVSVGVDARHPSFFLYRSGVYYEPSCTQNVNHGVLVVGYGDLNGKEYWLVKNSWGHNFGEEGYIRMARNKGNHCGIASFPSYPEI
Experimental: All kinetic experiments were performed using fMax (Molecular Devices) and CLARIOStar (BMG LABTECH) spectrofluorimeters operating in kinetic mode using 96-well plates. ACC-labeled substrates were screened using 355 nm and 460 nm wavelengths (excitation and emission, respectively). […] The buffer was prepared at room temperature and the enzyme kinetic studies were performed at 37 °C.
For the kinetic studies, five recombinant human cathepsins (B, L, V, K and S) were expressed and purified and active site titrated using an E64 inhibitor. The kobs/I parameter was measured under pseudo-first order kinetic conditions, as described.[40] The cathepsin of interest was mixed with various concentrations of probe (at least 5-fold excess over cathepsin) and 100 μM ACC-fluorescence substrate. The experiments were repeated at least three times, and the results are presented as an average. The SDs were below 20%.

[3] = test system: cathepsin L in MDA-MB-231 cells; assay: Weighted colocalization of probe with cathepsin L antibody, confocal microscopy; assay type: cell-based, human; settings: 1 μM probe
Experimental: Glass coverslips 15 mm in diameter were placed in 12-well plates and coated with poly-D-lysine (500 μL, 1 mg mL^–1 in water, Specialty Media) for 30 minutes. The poly-D-lysine was aspirated and the coverslips were washed twice with sterile water and air-dried. Next, low passage MDA-MB-231 cells in DMEM (100 000 cells per mL) were added to wells (1 mL per well) and allowed to attach for 2 hours. Cells were then treated with Cy5-labeled probes (1 μM) for 8 or 24 hours. The control cells were preincubated with E64d for 2 hours. After various incubation times, the medium was removed and the cells were gently washed twice with DPBS (1 mL each). The cells were then fixed with ice-cold methanol (500 μL per well) for 15 minutes at –20 °C. The methanol was gently removed and the fixed cells were washed twice with DPBS, blocked and permeabilized with 10% BSA in DPBS (with 0.5% Triton-X, v/v) for 1 hour at room temperature, and washed twice with 3% BSA in DPBS (with 0.5% Triton-X, v/v). Cathepsins L and B were detected by primary goat anti-hCathepsin L (R&D, AF952, 0.2 mg mL^–1, 1 : 200) and goat anti-hCathepsin B (R&D, AF953, 0.2 mg mL^–1, 1 : 80), respectively, in 3% BSA in DPBS (with 0.5% Triton-X, v/v) for 2 hours at room temperature. The antibodies were removed and the cells were washed twice with 3% BSA in DPBS (with 0.5% Triton-X, v/v) and labeled with a secondary antibody (Alexa Fluor™ 488 donkey anti-goat IgG (H + L), A11055, Invitrogen, 1 : 500) in DPBS (with 0.5% Triton-X, v/v) for 1 hour at room temperature. Next, the cells were washed twice with DPBS, and coverslips were mounted using Vectashield mounting medium fluorescence containing DAPI (Vector Lab. H-1000). In brief, a drop of mounting medium was placed on the Superfrost Plus microscope slide (Fisher Scientific, no. 12-550-15) and the coverslip was placed on the drop upside-down. […] DAPI was detected using the UV channel, the Cy5 probe was detected with a Cy5 filter (excitation at 647 nm (Axio Observer) or 633 nm (Zeiss LSM), emission at 667 nm; red channel) and cathepsins/secondary antibodies were read using FITC filters (excitation at 495 nm (Axio Observer) or 488 nm (Zeiss LSM), emission at 517 nm; […]; green channel). All images were acquired in .tiff format in MetaMorph software or in .lsm format in ZEN software and analyzed using ImageJ and ZEN software. […]
To quantify ABP/cathepsin colocalization we calculated weighted colocalization coefficients between the MP-cL3 ABP (red) and cathepsin L (green) and between the MP-cL3 ABP (red) and cathepsin B (green) using ZEN 2011 software. […]

kobs/I Cath-S [2]: 225 M⁻¹ s⁻¹
Substance: Cy5-6-ahx-His-DThr-Phe(F5)-Cys(Bzl)-AOMK [MP-cL3]
weighted colocalization coefficient ([1]; single cells analysis, 68 single cells): 0.635 | weighted colocalization coefficient ([1]; whole pictures analysis, 7 images): 0.646 | weighted colocalization coefficient ([3]; CatL ab (8h), single cells analysis, 98 single cells): 0.928 | weighted colocalization coefficient ([3]; CatL ab (8h), whole pictures analysis, 8 images): 0.937 | weighted colocalization coefficient ([3]; CatL ab (24h), single cells analysis, 59 single cells): 0.695 | weighted colocalization coefficient ([3]; CatL ab (24h), whole pictures analysis, 8 images): 0.725
